Target: T1, Type-1 angiotensin II receptor (Oryctolagus cuniculus, UniProt P34976)
T1 sequence (P34976 whole entry): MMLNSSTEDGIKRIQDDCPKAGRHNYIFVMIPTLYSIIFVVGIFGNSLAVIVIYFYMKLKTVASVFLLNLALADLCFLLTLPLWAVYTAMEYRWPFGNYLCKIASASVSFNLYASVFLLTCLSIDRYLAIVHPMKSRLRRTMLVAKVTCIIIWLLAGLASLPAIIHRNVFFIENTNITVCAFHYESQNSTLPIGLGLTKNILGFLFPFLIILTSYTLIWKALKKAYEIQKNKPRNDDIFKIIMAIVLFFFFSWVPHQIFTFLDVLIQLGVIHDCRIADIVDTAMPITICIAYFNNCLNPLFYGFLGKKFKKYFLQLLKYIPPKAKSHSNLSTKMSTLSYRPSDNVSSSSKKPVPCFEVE
Experiment: Antagonist activity at AT1 receptor in rabbit aorta membranes
Type: cell membranes, Membrane

## CCCCC(=O)Nc1ccc(C)c(-n2nc(CCCC)n(Cc3ccc(-c4ccccc4S(=O)(=O)NC(=O)c4ccccc4Cl)cc3)c2=O)c1
  IC50: 0.024 µM
